Measurements reported in patent US8404849B2, “Processes for producing modulators of cystic fibrosis transmembrane conductance regulator” (Vertex Pharmaceuticals, priority 2010, dated 2013).

Target: T1, ΔF508-CFTR (Homo sapiens, UniProt P13569, DEL508-508)
T1 construct: expressed in transfected cells; host or cells: NIH3T3 mouse fibroblasts, stably expressing, cultured at 27 °C (temperature-corrected)
Test: Membrane potential optical assay for identification of ΔF508-CFTR potentiators (FLIPR III, forskolin activation)
Format: cell-based
Details: for Emax: NIH3T3, 100% efficacy is the maximum response obtained with 4-methyl-2-(5-phenyl-1H-pyrazol-3-yl)phenol, ΔF508 CFTR NIH 3T3 cells; for EC50: temperature-corrected ΔF508 CFTR NIH 3T3 cells
Source text: The assay utilizes fluorescent voltage sensing dyes to measure changes in membrane potential using a fluorescent plate reader (e.g., FLIPR III, Molecular Devices, Inc.) as a readout for increase in functional ΔF508-CFTR in NIH 3T3 cells. The driving force for the response is the creation of a chloride ion gradient in conjunction with channel activation by a single liquid addition step after the cells have previously been treated with compounds and subsequently loaded with a voltage sensing dye.
To identify potentiators of ΔF508-CFTR, a double-addition HTS assay format was developed. This HTS assay utilizes fluorescent voltage sensing dyes to measure changes in membrane potential on the FLIPR III as a measurement for increase in gating (conductance) of ΔF508 CFTR in temperature-corrected ΔF508 CFTR NIH 3T3 cells. The driving force for the response is a Cl^− ion gradient in conjunction with channel activation with forskolin in a single liquid addition step using a fluorescent plate reader such as FLIPR III after the cells have previously been treated with potentiator compounds (or DMSO vehicle control) and subsequently loaded with a redistribution dye.
Solutions • Bath Solution #1: (in mM) NaCl 160, KCl 4.5, CaCl2 2, MgCl2 1, HEPES 10, pH 7.4 with NaOH. Chloride-Free Bath Solution: Chloride Salts in Bath Solution #1 are Substituted with Gluconate Salts.
NIH3T3 mouse fibroblasts stably expressing ΔF508-CFTR are used for optical measurements of membrane potential. The cells are maintained at 37° C. in 5% CO2 and 90% humidity in Dulbecco's modified Eagle's medium supplemented with 2 mM glutamine, 10% fetal bovine serum, 1×NEAA, β-ME, 1× pen/strep, and 25 mM HEPES in 175 cm^2 culture flasks. For all optical assays, the cells were seeded at ˜20,000/well in 384-well matrigel-coated plates and cultured for 2 hrs at 37° C. before culturing at 27° C. for 24 hrs. for the potentiator assay. For the correction assays, the cells are cultured at 27° C. or 37° C. with and without compounds for 16-24 hours.

T1 sequence (P13569 with tags, fused parts or gaps DEL508-508): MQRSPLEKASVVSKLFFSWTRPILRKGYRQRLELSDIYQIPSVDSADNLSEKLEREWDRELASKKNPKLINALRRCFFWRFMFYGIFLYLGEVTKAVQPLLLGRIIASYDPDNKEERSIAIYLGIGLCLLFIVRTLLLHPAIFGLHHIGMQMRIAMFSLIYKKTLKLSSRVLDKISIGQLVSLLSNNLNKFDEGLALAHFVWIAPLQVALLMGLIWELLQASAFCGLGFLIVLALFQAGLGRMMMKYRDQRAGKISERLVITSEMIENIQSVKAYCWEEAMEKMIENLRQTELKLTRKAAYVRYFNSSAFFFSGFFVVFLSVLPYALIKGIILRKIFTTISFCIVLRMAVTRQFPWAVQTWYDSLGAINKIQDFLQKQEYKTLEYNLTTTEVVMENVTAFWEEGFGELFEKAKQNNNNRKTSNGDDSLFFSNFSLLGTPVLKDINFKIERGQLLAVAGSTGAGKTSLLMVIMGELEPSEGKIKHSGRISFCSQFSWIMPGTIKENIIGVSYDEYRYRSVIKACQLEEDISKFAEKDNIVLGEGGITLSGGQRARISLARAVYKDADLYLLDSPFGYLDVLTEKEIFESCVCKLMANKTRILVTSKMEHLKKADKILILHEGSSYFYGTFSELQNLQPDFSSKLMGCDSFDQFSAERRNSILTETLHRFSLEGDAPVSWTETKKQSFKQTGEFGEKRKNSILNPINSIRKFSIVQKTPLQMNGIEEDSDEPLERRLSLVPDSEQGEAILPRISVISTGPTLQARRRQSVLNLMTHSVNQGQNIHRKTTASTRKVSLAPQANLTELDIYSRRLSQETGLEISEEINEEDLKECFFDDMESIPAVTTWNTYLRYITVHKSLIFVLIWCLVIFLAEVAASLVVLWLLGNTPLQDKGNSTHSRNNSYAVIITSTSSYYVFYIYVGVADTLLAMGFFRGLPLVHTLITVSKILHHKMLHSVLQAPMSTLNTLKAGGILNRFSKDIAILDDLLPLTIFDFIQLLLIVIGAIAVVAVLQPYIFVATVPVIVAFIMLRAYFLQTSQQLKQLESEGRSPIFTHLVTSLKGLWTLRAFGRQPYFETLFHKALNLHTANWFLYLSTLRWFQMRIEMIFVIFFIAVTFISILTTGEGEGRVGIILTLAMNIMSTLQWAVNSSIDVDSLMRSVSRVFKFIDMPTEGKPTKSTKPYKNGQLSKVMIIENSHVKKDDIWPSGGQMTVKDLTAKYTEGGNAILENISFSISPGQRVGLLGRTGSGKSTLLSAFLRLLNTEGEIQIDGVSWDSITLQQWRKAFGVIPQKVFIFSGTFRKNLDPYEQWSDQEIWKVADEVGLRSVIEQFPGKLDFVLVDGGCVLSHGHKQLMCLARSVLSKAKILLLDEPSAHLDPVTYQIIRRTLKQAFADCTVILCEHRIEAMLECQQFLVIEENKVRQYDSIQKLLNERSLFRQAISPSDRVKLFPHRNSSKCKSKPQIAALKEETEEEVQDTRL

Compound | Emax | EC50
O=C(Nc1ccc(N2[C@@H]3CC[C@H]2[C@H](O)C3)cc1C(F)(F)F)c1c[nH]c2cccc(C(F)(F)F)c2c1=O (relative stereo) [Compound 1b] | > 100% | < 2 µM
O=C(Nc1ccc(N2C3CCC2[C@H](O)C3)cc1C(F)(F)F)c1c[nH]c2cccc(C(F)(F)F)c2c1=O (stereo partly drawn) [Compound 1a] | 25 to 100% | < 2 µM
O=C(Nc1ccc(N2C3CCC2CC3)cc1C(F)(F)F)c1c[nH]c2cccc(C(F)(F)F)c2c1=O [Formula II, N-(4-(7-azabicyclo[2.2.1]heptan-7-yl)-2-(trifluoromethyl)phenyl)-4-oxo-5-(trifluoromethyl)-1,4-dihydroquinoline-3-carboxamide] | 25 to 100% | < 2 µM
